Laboratory results: ChEMBL document CHEMBL3045868, “Synthesis and antibacterial activities of para-alkoxy phenyl--ketoaldehyde derivatives” (Med Chem Res, 2013)
≈ marks a conversion by molar mass, not a printed value.

How the values were obtained:
Type in all cases: functional
Staphylococcus aureus [1] = assay: Antibacterial activity against Staphylococcus aureus clinical isolate 14 assessed as growth inhibition at pH 9 after 16 to 18 hr by NCCLS agar dilution method
Staphylococcus aureus [2] = assay: Antibacterial activity against Staphylococcus aureus clinical isolate 13 assessed as growth inhibition at pH 9 after 16 to 18 hr by NCCLS agar dilution method
Staphylococcus aureus [3] = assay: Antibacterial activity against Staphylococcus aureus clinical isolate 12 assessed as growth inhibition at pH 9 after 16 to 18 hr by NCCLS agar dilution method
Staphylococcus aureus [4] = assay: Antibacterial activity against Staphylococcus aureus clinical isolate 11 assessed as growth inhibition at pH 9 after 16 to 18 hr by NCCLS agar dilution method
Staphylococcus aureus [5] = assay: Antibacterial activity against Staphylococcus aureus clinical isolate 8 assessed as growth inhibition at pH 9 after 16 to 18 hr by NCCLS agar dilution method
Staphylococcus aureus [6] = assay: Antibacterial activity against Staphylococcus aureus clinical isolate 8 assessed as growth inhibition at pH 7 after 16 to 18 hr by NCCLS agar dilution method
Staphylococcus aureus [7] = assay: Antibacterial activity against Staphylococcus aureus clinical isolate 6 assessed as growth inhibition at pH 7 after 16 to 18 hr by NCCLS agar dilution method
Staphylococcus aureus [8] = assay: Antibacterial activity against Staphylococcus aureus clinical isolate 1 assessed as growth inhibition at pH 7 after 16 to 18 hr by NCCLS agar dilution method
Staphylococcus aureus [9] = assay: Bactericidal activity against Staphylococcus aureus clinical isolate 7 after 24 hr; conditions: isolate 7, 24 h
Staphylococcus aureus [10] = assay: Bactericidal activity against Staphylococcus aureus clinical isolate 6 after 24 hr; conditions: isolate 6, 24 h
Staphylococcus aureus [11] = assay: Bactericidal activity against Staphylococcus aureus clinical isolate 2 after 24 hr; conditions: isolate 2, 24 h
Staphylococcus aureus [12] = assay: Antibacterial activity against Staphylococcus aureus clinical isolate 9 assessed as growth inhibition after 16 to 18 hr by NCCLS agar dilution method
Staphylococcus aureus [13] = assay: Antibacterial activity against Staphylococcus aureus clinical isolate 7 assessed as growth inhibition after 16 to 18 hr by NCCLS agar dilution method
Staphylococcus aureus [14] = assay: Antibacterial activity against Staphylococcus aureus clinical isolate 22 assessed as growth inhibition at pH 5 after 16 to 18 hr by NCCLS agar dilution method
Staphylococcus aureus [15] = assay: Antibacterial activity against Staphylococcus aureus clinical isolate 22 assessed as growth inhibition at pH 7 after 16 to 18 hr by NCCLS agar dilution method
Staphylococcus aureus [16] = assay: Antibacterial activity against Staphylococcus aureus clinical isolate 20 assessed as growth inhibition at pH 7 after 16 to 18 hr by NCCLS agar dilution method
Staphylococcus aureus [17] = assay: Antibacterial activity against Staphylococcus aureus clinical isolate 19 assessed as growth inhibition at pH 7 after 16 to 18 hr by NCCLS agar dilution method
Staphylococcus aureus [18] = assay: Antibacterial activity against Staphylococcus aureus clinical isolate 18 assessed as growth inhibition at pH 7 after 16 to 18 hr by NCCLS agar dilution method
Staphylococcus aureus [19] = assay: Antibacterial activity against Staphylococcus aureus clinical isolate 17 assessed as growth inhibition at pH 7 after 16 to 18 hr by NCCLS agar dilution method
Staphylococcus aureus [20] = assay: Antibacterial activity against Staphylococcus aureus clinical isolate 16 assessed as growth inhibition at pH 7 after 16 to 18 hr by NCCLS agar dilution method
Staphylococcus aureus [21] = assay: Antibacterial activity against Staphylococcus aureus clinical isolate 11 assessed as growth inhibition at pH 7 after 16 to 18 hr by NCCLS agar dilution method
Staphylococcus aureus [22] = assay: Antibacterial activity against Staphylococcus aureus clinical isolate 9 assessed as growth inhibition at pH 5 after 16 to 18 hr by NCCLS agar dilution method
Staphylococcus aureus [23] = assay: Antibacterial activity against Staphylococcus aureus clinical isolate assessed as growth inhibition at pH 9 after 16 to 18 hr by NCCLS agar dilution method
Staphylococcus aureus [24] = assay: Antibacterial activity against Staphylococcus aureus clinical isolate assessed as growth inhibition at pH 5 after 16 to 18 hr by NCCLS agar dilution method
Staphylococcus aureus [25] = assay: Antibacterial activity against Staphylococcus aureus clinical isolate 20 assessed as growth inhibition at pH 9 after 16 to 18 hr by NCCLS agar dilution method
Staphylococcus aureus [26] = assay: Antibacterial activity against Staphylococcus aureus clinical isolate 18 assessed as growth inhibition at pH 9 after 16 to 18 hr by NCCLS agar dilution method
Staphylococcus aureus [27] = assay: Antibacterial activity against Staphylococcus aureus clinical isolate 16 assessed as growth inhibition at pH 9 after 16 to 18 hr by NCCLS agar dilution method
Helicobacter pylori [28] = assay: Antibacterial activity against Helicobacter pylori 06-8 assessed as growth inhibition after 16 to 18 hr NCCLS agar dilution method
Staphylococcus aureus [29] = assay: Antibacterial activity against Staphylococcus aureus clinical isolate 6 assessed as growth inhibition at pH 9 after 16 to 18 hr by NCCLS agar dilution method
Staphylococcus aureus [30] = assay: Antibacterial activity against Staphylococcus aureus clinical isolate 3 assessed as growth inhibition at pH 9 after 16 to 18 hr by NCCLS agar dilution method
Staphylococcus aureus [31] = assay: Antibacterial activity against Staphylococcus aureus clinical isolate 2 assessed as growth inhibition at pH 9 after 16 to 18 hr by NCCLS agar dilution method
Helicobacter pylori [32] = assay: Antibacterial activity against Helicobacter pylori 06-3 assessed as growth inhibition after 16 to 18 hr NCCLS agar dilution method
Helicobacter pylori [33] = assay: Antibacterial activity against Helicobacter pylori 06-2 assessed as growth inhibition after 16 to 18 hr NCCLS agar dilution method
Staphylococcus aureus [34] = assay: Antibacterial activity against Staphylococcus aureus clinical isolate 20 assessed as growth inhibition at pH 5 after 16 to 18 hr by NCCLS agar dilution method
Staphylococcus aureus [35] = assay: Antibacterial activity against Staphylococcus aureus clinical isolate 19 assessed as growth inhibition at pH 5 after 16 to 18 hr by NCCLS agar dilution method
Staphylococcus aureus [36] = assay: Antibacterial activity against Staphylococcus aureus clinical isolate 16 assessed as growth inhibition at pH 5 after 16 to 18 hr by NCCLS agar dilution method
Staphylococcus aureus [37] = assay: Antibacterial activity against Staphylococcus aureus clinical isolate 15 assessed as growth inhibition at pH 5 after 16 to 18 hr by NCCLS agar dilution method
Staphylococcus aureus [38] = assay: Bactericidal activity against Staphylococcus aureus clinical isolate 8 after 24 hr; conditions: isolate 8, 24 h
Staphylococcus aureus [39] = assay: Antibacterial activity against Staphylococcus aureus clinical isolate 2 assessed as growth inhibition at pH 5 after 16 to 18 hr by NCCLS agar dilution method
Staphylococcus aureus [40] = assay: Bactericidal activity against methicillin-resistant Staphylococcus aureus isolate 1 after 24 hr; conditions: isolate 1, 24 h
Staphylococcus aureus [41] = assay: Antibacterial activity against methicillin-resistant Staphylococcus aureus isolate 3 assessed as growth inhibition after 16 to 18 hr by NCCLS agar dilution method
Staphylococcus aureus [42] = assay: Antibacterial activity against Staphylococcus aureus clinical isolate assessed as growth inhibition after 16 to 18 hr by NCCLS agar dilution method

CO/N=C/CC(=O)c1ccc(OC)cc1
MIC (Staphylococcus aureus [1]): 8 µg/mL (≈ 38.6 µM)
MIC (Staphylococcus aureus [2]): 8 µg/mL (≈ 38.6 µM)
MIC (Staphylococcus aureus [3]): 8 µg/mL (≈ 38.6 µM)
MIC (Staphylococcus aureus [4]): 8 µg/mL (≈ 38.6 µM)
MIC (Staphylococcus aureus [5]): 8 µg/mL (≈ 38.6 µM)
MIC (Staphylococcus aureus [6]): 16 µg/mL (≈ 77.2 µM)
MIC (Staphylococcus aureus [7]): 32 µg/mL (≈ 154 µM)
MIC (Staphylococcus aureus [8]): 32 µg/mL (≈ 154 µM)
MBC (Staphylococcus aureus [9]): 128 µg/mL (≈ 618 µM)
MBC (Staphylococcus aureus [10]): 64 µg/mL (≈ 309 µM)
MBC (Staphylococcus aureus [11]): 64 µg/mL (≈ 309 µM)
MIC (Staphylococcus aureus [12]): 16 µg/mL (≈ 77.2 µM)
MIC (Staphylococcus aureus [13]): 8 µg/mL (≈ 38.6 µM)
MIC (Staphylococcus aureus [14]): 16 µg/mL (≈ 77.2 µM)
MIC (Staphylococcus aureus [15]): 16 µg/mL (≈ 77.2 µM)
MIC (Staphylococcus aureus [16]): 16 µg/mL (≈ 77.2 µM)
MIC (Staphylococcus aureus [17]): 16 µg/mL (≈ 77.2 µM)
MIC (Staphylococcus aureus [18]): 16 µg/mL (≈ 77.2 µM)
MIC (Staphylococcus aureus [19]): 16 µg/mL (≈ 77.2 µM)
MIC (Staphylococcus aureus [20]): 8 µg/mL (≈ 38.6 µM)
MIC (Staphylococcus aureus [21]): 16 µg/mL (≈ 77.2 µM)
MIC (Staphylococcus aureus [22]): 32 µg/mL (≈ 154 µM)
MIC50 (Staphylococcus aureus [23]): 8 µg/mL (≈ 38.6 µM)
MIC90 (Staphylococcus aureus [23]): 16 µg/mL (≈ 77.2 µM)
MIC50 (Staphylococcus aureus [24]): 32 µg/mL (≈ 154 µM)
MIC90 (Staphylococcus aureus [24]): 64 µg/mL (≈ 309 µM)
MIC (Staphylococcus aureus [25]): 8 µg/mL (≈ 38.6 µM)
MIC (Staphylococcus aureus [26]): 16 µg/mL (≈ 77.2 µM)
MIC (Staphylococcus aureus [27]): 8 µg/mL (≈ 38.6 µM)
MIC (Helicobacter pylori [28]): 32 µg/mL (≈ 154 µM)
MIC (Staphylococcus aureus [29]): 8 µg/mL (≈ 38.6 µM)
MIC (Staphylococcus aureus [30]): 8 µg/mL (≈ 38.6 µM)
MIC (Staphylococcus aureus [31]): 8 µg/mL (≈ 38.6 µM)
MIC (Helicobacter pylori [32]): 32 µg/mL (≈ 154 µM)
MIC (Helicobacter pylori [33]): 32 µg/mL (≈ 154 µM)
MIC (Staphylococcus aureus [34]): 64 µg/mL (≈ 309 µM)
MIC (Staphylococcus aureus [35]): 16 µg/mL (≈ 77.2 µM)
MIC (Staphylococcus aureus [36]): 32 µg/mL (≈ 154 µM)
MIC (Staphylococcus aureus [37]): 16 µg/mL (≈ 77.2 µM)
MBC (Staphylococcus aureus [38]): 32 µg/mL (≈ 154 µM)
MIC (Staphylococcus aureus [39]): 32 µg/mL (≈ 154 µM)
MBC (Staphylococcus aureus [40]): 128 µg/mL (≈ 618 µM)
MIC (Staphylococcus aureus [41]): 8 µg/mL (≈ 38.6 µM)
MIC50 (Staphylococcus aureus [42]): 16 µg/mL (≈ 77.2 µM)
MIC90 (Staphylococcus aureus [42]): 16 µg/mL (≈ 77.2 µM)
